Experimental data: PubChem BioAssay AID2305 (GlaxoSmithKline (GSK), 2010)

system: P. falciparum 3D7 growth, pLDH absorbance; assay: P. falciparum 3D7 growth inhibition, dose response, strain 3D7 (AID 2305)

Compound | IC50 [µM]
N#Cc1ccc2c(c1)CCN(CCC1CCC(NC(=O)/C=C/c3ccc(Cl)c(Cl)c3)CC1)CC2 (stereo not drawn) | 0.42
Cc1c(C(=O)NCc2ccncc2)sc2nc(-c3cccc([N+](=O)[O-])c3)cn12 | 0.91
Cc1cccc2[nH]c(-c3ccc(-c4ccc(NC(=O)C(C)CN5CCN(C)CC5)cc4)s3)nc12 (stereo not drawn) | 0.73
COc1ccc2nccc([C@@H](O)CN3CCC(NC(=O)c4cc5c(Cl)cc(Cl)cc5[nH]4)CC3)c2c1 | 0.23
O=C(c1ccc(Cl)cc1)C1CCCN(C2CCN(CCc3ccccc3)CC2)C1 (stereo not drawn) | 1.45
COc1ccc(-c2cccc(NC(=O)c3ccc(F)cc3)c2)cc1CN1CCCN(C)CC1 | 0.83
CN1CCN(c2ccc3nc(-c4ccc5nc(-c6ccc(O)cc6)[nH]c5c4)[nH]c3c2)CC1 | 0.12
COc1cc2nccc(Nc3cc(C)cc(O)c3)c2cc1OC | 0.91
CCN1CCC(NCc2ccc(-c3ccc(Cl)cc3)cc2)CC1 | 1.02
CN(C)c1ccc(C=C2SC(=N)N(c3nccs3)C2=O)cc1 | 0.46
CC(C)Nc1ccc(Nc2ccnc3cc4ccccc4cc23)cc1 | 0.14
C[C@H](Cc1ccc(OCCCCCCCOc2ccc(C[C@@H](C)NC[C@H](O)c3cccc(Cl)c3)cc2)cc1)NC[C@H](O)c1cccc(Cl)c1 | 0.19
CCc1c(C(=O)NC2CCC(N3CCC(c4ccccc4C)CC3)CC2)[nH]c2ccc(OC)cc12 (stereo not drawn) | 0.81
NC(N)=NN=CC(=O)Nc1ccc(Cl)c(C(F)(F)F)c1 | 0.89
COc1ccc2nccc([C@@H](O)CN3CCC(NCc4cc5cccnc5[nH]4)CC3)c2n1 | 0.96
COc1cc2ccccc2c(CON2C(N)=NC(N)=NC2(C)C)c1OC | 0.05
CC(C)Cn1c2ccccc2c2nc3nc(N)nc(N)c3nc21 | 0.72
COc1ccc(NC2=C(c3ccccc3)C(=O)c3ccccc32)cn1 | 0.71
O=C(Nc1ccc(Cl)cc1)N1CCN(C2CCCCC2)CC1 | 0.99
O=C(Nc1ccc(Cl)cc1)Nc1ccc(-c2ccc(-c3nc4ccccc4[nH]3)cc2)cc1 | 0.05
N#Cc1ccc(-c2ccc(C(=O)NCCCCN3CCC(n4cnc5ccccc54)CC3)cc2)cc1 | 0.91
Cc1nnc(N2C(=N)SC(=Cc3ccc(-c4ccc(OC(F)(F)F)cc4)o3)C2=O)s1 | 0.53
CNS(=O)(=O)c1ccc2c(c1)nc(C1CCN(CC3CCC(NC(=O)/C=C/c4ccc(Cl)c(Cl)c4)CC3)CC1)n2C (stereo not drawn) | 0.67

Compound | IC50 [µM]
CC(CCc1ccccc1)NCC(O)c1cccc([N+](=O)[O-])c1 (stereo not drawn) | 0.86
CC(C)(C)c1nn(-c2ccc(Cl)cc2)c2[nH]c(=O)c(CNCc3cccs3)cc12 | 0.76
Cc1cccc(OCC2CCN(c3ncc(C(=O)NC4CC4)cc3Cl)CC2)c1 | 1.33
c1ccc(C2=NN=C(c3ccccn3)[C@H]3[C@H]4C[C@@H]([C@@H]23)[C@@H]2[C@H]4[C@H]3C[C@@H]2c2ccccc23)nc1 | 0.85
Cc1[nH]c2cc(Cl)ccc2c1C1=CCN(CCN2CCOc3c(Br)cccc3C2=O)CC1 | 0.87
CNc1ccc(CNCc2cccc(-c3ccc(-c4nc5ccccc5[nH]4)s3)c2)cc1 | 0.73
Cn1cncc1C(=O)Nc1cccc(-c2ccc(-c3nc4ccccc4[nH]3)s2)c1 | 0.8
O=C(Nc1cccc(F)c1)c1ccc(C(=O)NC2CCN(CC3CCCCC3)C2)cc1 (stereo not drawn) | 0.93
CN1CCc2cc(CN3C[C@]4(C)C[C@H]3CC(C)(C)C4)c(O)cc2C(c2ccccc2)C1 (stereo partly drawn) | 0.72
O=C(Nc1ccccc1)N1CCOC(CCN2CCC(F)(F)CC2)(c2ccc(Cl)c(Cl)c2)C1 (stereo not drawn) | 0.19
Nc1ncc(-c2ccc3nccc(-c4ccncc4)c3c2)cc1S(=O)(=O)N1CCOCC1 | 0.87
CC(=O)C1(c2ccccc2)CCN(CCC2(c3ccc(Cl)c(Cl)c3)CN(C(=O)c3cccc(Cl)c3)CCO2)CC1 (stereo not drawn) | 0.85
O=C(/C=C/c1ccc(Cl)c(Cl)c1)NCCCCCN1CCCC(C(=O)Nc2ccc(F)c(Cl)c2)C1 (stereo not drawn) | 0.9
O=C(Nc1cccc(C(F)(F)F)c1)c1cccc(S(=O)(=O)NCC2CCCN2CC2CCCCC2)c1 (stereo not drawn) | 1.11
Cc1[nH]c(C)c(-c2ccc(Oc3ccc(Cl)c(Cl)c3)cc2)c(=O)c1Cl | 0.11
CCn1c(-c2nonc2N)nc2c(-c3ccccc3)ncc(OCCCCNCCc3ncc[nH]3)c21 | 0.85
O=C(Nc1ccc(Cl)c(C(F)(F)F)c1)NC1CCN(CCCCCNC(=O)[C@@H]2C[C@H]2c2ccc(Cl)c(Cl)c2)CC1 | 0.68
Cc1cccc(Nc2nc(NCCCCN)nc3cc[nH]c(=O)c23)c1 | 0.73
CCCC(C)c1ccc(N2C(N)=NC(N)=NC2(C)C)cc1 (stereo not drawn) | 0.01
CC(C)CCN1CCC(Oc2ccc(NC(=O)c3cccs3)cc2Cl)CC1 | 0.34
CC(C)/C(=C(/F)CN1C(=O)C(NC(=O)c2cc3ccccc3[nH]2)C(=O)N(c2ccccc2)c2ccccc21)c1ccccc1 (stereo not drawn) | 0.7
CNCCNCc1ccc(-c2cccc(-c3nc4ccc(C(F)(F)F)cc4[nH]3)c2)cc1 | 0.63
COc1ccc(CCN(C)CCOc2ccc(NC(=O)c3ccc([N+](=O)[O-])c4c(=O)c5ccccc5[nH]c34)cc2)cc1OC | 0.93

Compound | IC50 [µM]
COc1ccccc1N1CCN(Cc2c(O)ccc3cc(Br)ccc23)CC1 | 1.15
CC1(C)N=C(N)N=C(N)N1OCc1cc(Cl)c(Cl)cc1CON1C(N)=NC(N)=NC1(C)C | 0.01
Cc1cccc(C(=O)NC(NC(=S)Nc2cc(Cl)ccc2Cl)C(Cl)(Cl)Cl)c1 (stereo not drawn) | 1.27
COc1cccc(Nc2c(C(N)=O)cnc3ccc(-c4ccc(S(C)=O)cc4)cc23)c1 (stereo not drawn) | 0.19
CC(C)CN(c1nc(C(=O)NNC(=O)[C@H](CC2CC2)NC(=O)c2cc3cc(OCCN4CCCCC4)ccc3o2)cs1)C1CC1 | 0.21
COc1cc2c(cc1NC(=O)CN1CCN(C(=O)c3ccco3)CC1)oc1ccccc12 | 0.42
CN(C)CCN(C)Cc1ccc(-c2ccc3c(Nc4ccc(Cl)cc4F)ccnc3c2)o1 | 0.36
CN(/N=C/C=C/c1ccc(Cl)cc1)c1nc(NCCc2ccc(O)cc2)nc(N2CCNCC2)n1 | 0.87
CN1CCCN(Cc2cccc(-c3ccc(NC(=O)c4ccc(Cl)cc4)cc3)c2)CC1 | 0.72
O=C(NCCc1ccccc1)N(Cc1cccc(-c2ccc(CNCc3ccc4c(c3)OCO4)cc2)c1)C1CCN(Cc2ccccc2)CC1 | 0.66
CC(C)C1=NCc2ccc([N+](=O)[O-])cc2C(=O)N1 | 0.15
COc1cc(NC2=C(c3ccccc3)C(=O)c3ccccc32)ccn1 | 0.36
CN(C)c1ccc(CN2CCC(NC(=O)c3ccc(-c4cccc(C(F)(F)F)c4)s3)CC2)cc1 | 1.15
O=C(Nc1cccc(-c2ccc(-c3nc4ccc(F)cc4[nH]3)cc2)c1)Nc1ccc(F)c(F)c1F | 0.11
COc1ccccc1N(C)CCNc1cc(C)nc(Nc2ccccc2)n1 | 1.07
Cc1cc(C2CCCCN2C)ccc1-c1ccc(C(=O)N2CCc3cc4c(cc32)C2(CCN(C)CC2)CO4)cc1 (stereo not drawn) | 0.79
CCC[C@@H]([C@@H](CC1CCCCC1)C(=O)N[C@H](C(=O)Nc1nccc(N)n1)C(C)(C)C)N(O)C=O | 0.53
CCNc1cc(C(=O)N[C@@H](Cc2ccccc2)[C@H](O)CNCCc2cccc3ccccc23)cc(N2CCCC2=O)c1 | 0.98
Cc1cccc2[nH]c(-c3cccc(-c4ccc(CNCc5cnn(-c6ccccc6)n5)cc4)c3)nc12 | 0.92
CC(O)CNc1nc2ccccc2n1CC(=O)Nc1cccc(C(=O)Nc2cccc(C(F)(F)F)c2)c1 (stereo not drawn) | 0.1
COc1ccc(C(=O)N2CCc3cc4nccc(N5CCN6CCC[C@H]6C5)c4cc32)cc1 | 0.95
NC(=O)c1ccc(C(=O)Nc2cccc(-c3ccc(-c4nc5ccc(C(F)(F)F)cc5[nH]4)cc3)c2)cc1 | 0.51
